Measurements: patent US7981899B2, “Use of compatible solutes for inhibiting the release of ceramides” (Merck Patent GmbH, priority 2002, dated 2011)

Tests used:
[1] = test system: ICAM-1; assay: Inhibition of UV-A-induced ICAM-1 expression, differential RT-PCR (Example B3); type: cell-based, human; details: keratinocytes, 1 mM pre-incubation for 24 hours, UVA 30 J/cm^2, relative to β-actin, all points in time, FIG. 3
Procedure: The expression of ICAM-1 is measured using differential reverse transcriptase PCR (RT -PCR) and the kit from Applied Biosystem. In order to take into account the normal variations in gene expression of skin cells, the ICAM-1 expression is compared with the housekeeping gene β-actin formed constitutively. Semiquantitative analysis of the RT-PCR is carried out by ion exchange chromatography using a UV spectrophotometer (A260). (A) Un-pretreated, irradiated control, (B) pre-incubated with 1 mM RONACARE™ ectoin for 24 hours and irradiated with a single dose of 30 J/cm^2, or (C) pre-incubated with 1 mM ectoin for 24 hours, unirradiated. The UVA radiation induces an increase in ICAM-1 expression.

[2] = test system: transcription factor AP-2; assay: Inhibition of UV-A-induced AP-2 activation, gel electrophoresis mobility shift assay (Example B2); type: cell-based; details: human keratinocytes, 1 mM pre-incubation for 24 hours, UV-A 30 J/cm^2, FIG. 2
Procedure: The determination of the activation of transcription factor AP-2 is carried out with the aid of gel electrophoresis mobility shift assays (GEMSA). To this end, a nucleus extract (according to J.D. Dignam, P.L.Martin, B.S. Skastry, R.G.G. Roeder, Methods Enzymol 101 (1983) 582-598) of human keratinocytes which had previously been irradiated for 1 hour with 30 J/cm^2 of UV-A light is incubated in comparison with an unirradiated control with the consensus oligonucleotide sequence of ICAM-1 promoter (in accordance with G.G. Stade, G. Messer, G. Riethmüller, J.P. Johannson; Immunobiology 182 (1990) 79-87). The amount of bound AP-2 is subsequently determined by means of GEMSA. (A) Un-pretreated, unirradiated control, (B) pre-incubated with 1 mM RONACARE™ ectoin for 24 hours and irradiated with a single dose of 30 J/cm^2, or (C) pre-incubated only with the cell medium for 24 hours and irradiated with 30 J/cm^2. The UVA irradiation results in activation of transcription factor AP-2 after UVA exposure.

[3] = test system: dermal human fibroblasts; assay: UVA radiation-induced formation of mitochondrial DNA mutations (common deletion), PCR (Example B4); type: cell-based; details: 1 mM pretreatment, 8 J/cm^2 UVA three times daily, four successive days, three weeks, FIG. 4
Description: Dermal human fibroblasts are cultivated in Eagle minimal medium. The cells are irradiated three times daily with 8 J/cm^2 of UVA on four successive days over a total of three weeks. The mt-DNA is then extracted and amplified using PCR. Further details on the method are described in detail in M. Berneburg, S. Grether-Beck, V. Kürten, Th. Ruzicka, K. Briviba, H. Sies, J. Krutmann, J Biol Chem 274 (1999) 15345-15349 and M. Berneburg, N. Gattermann, H. Stege, M. Grewe, K. Vogelsang, Th. Ruzicka, J. Krutmann, Photobiol. 66 (1997) 271-275.

[4] = test system: normal human keratinocytes; assay: Inhibition of UV-A-induced ceramide formation, quantitative HPTLC (Example B1); type: cell-based; details: 1 mM pre-incubation for 24 hours, UVA 30 J/cm^2, 1 hour after irradiation, FIG. 1
Procedure: The concentration of a second messenger (ceramide) in UVA-irradiated normal human keratinocytes which have either been pretreated with 1 mM RONACARE™ ectoin or are untreated compared with unirradiated keratinocytes is measured using a quantitative HPTLC method. (A) Un-pretreated control, (B) pre-incubated only with the cell medium for 24 hours, (C) pre-incubated with 1 mM RONACARE™ ectoin for 24 hours. The cells pre-treated in this way are irradiated with a single dose of UVA of 30 J/cm^2 (radiation source: Sellamed 24000). The cells are “harvested” 1 hour after irradiation, a lipid extraction is carried out, and the concentration of the second messenger is determined by quantitative HPTLC. Methodological details are given in Grether-Beck Set al., EMBO J 19: 5793-5800, 2000. […] The data are shown as histograms of ectoin (mM) against ceramide (ng).

[5] = test system: normal human keratinocytes; assay: Release of second messenger in UV-A-irradiated keratinocytes (Example A); type: cell-based; details: 2 mM for 24 hours
Procedure: Normal human keratinocytes which are left untreated or have been treated with a 2 mM solution of RONACARE™ ectoin for 24 hours are subjected to a UV-A radiation dose of 30 J/cm^2 (wavelength of the UV-A radiation: 340-400 nm). […] The cells are harvested 1 hour after irradiation (=maximum UV-A-induced second messenger formation). The release of the second messenger was determined.

## CC1=N[C@H](C(=O)O)CCN1 [RONACARE™ ectoin, (S)-1,4,5,6-tetrahydro-2-methyl-4-pyrimidinecarboxylic acid]
[1]
  ICAM-1 induction induced by UVA radiation: virtually completely eliminate ICAM-1 induction
[2]
  activation of transcription factor AP-2 after UVA exposure: suppressed virtually completely
[3]
  formation of mt-DNA mutations: prevented the formation of mt-DNA mutations
[4]
  ceramide formation induced by UVA radiation: completely suppresses ceramide formation
[5]; UV-A 30 J/cm^2
  UV-A-induced release of the second messenger: inhibits the UV-A-induced release of the second messenger
[5]; UV-A 30 J/cm^2 (340-400 nm), harvested 1 hour after irradiation
  Increase in second messenger: 5.65 ng
